Data on four compounds can be found in PubChem BioAssay AID1259407 (Chemical Carcinogenesis Research Information System (CCRIS), 2018).

The series concerns CCRIS mutagenicity, Ames/micronucleus/aberration tests. The series can be described thus: CCRIS mutagenicity studies.
[1] abbreviates: Test System: AMES SALMONELLA TYPHIMURIUM, Strain/Indicator: TA100, Metabolic Activation: NONE, Method: PREINCUBATION
The mark [2] stands for this setting: Test System: AMES SALMONELLA TYPHIMURIUM, Strain/Indicator: TA100, Metabolic Activation: RAT, LIVER, S-9, AROCLOR 1254, Method: STANDARD PLATE.
Setting [3] is: Test System: AMES SALMONELLA TYPHIMURIUM, Strain/Indicator: TA100, Metabolic Activation: NONE, Method: STANDARD PLATE.

Activity calls are given as the source filed them. No rule for the calls is given here.

Turning to `C[C@H]1CCCC(=O)CCC/C=C/c2cc(O)cc(O)c2C(=O)O1`, the mutagenic call runs as follows: (End Point: IN VITRO CHROMOSOMAL ABERRATIONS, Test System: BOVINE LYMPHOCYTES, Metabolic Activation: NONE) “active; positive (structural changes)”; (End Point: In vitro chromosomal aberrations, Test System: Green monkey kidney (Vero) cells, Metabolic Activation: None) “active; positive (structural changes)”; (End Point: In vitro chromosomal aberrations, Test System: Monkey kidney Vero cells, Metabolic Activation: None) “active; positive”; (End Point: In vitro micronucleus, Test System: Green monkey kidney (Vero) cells, Metabolic Activation: None) “active; positive”; (End Point: In vivo chromosomal aberrations, Test System: Bone marrow cells, Species: Mouse, Strain/Sex: Balb/C/Female, Route: Oral) “active; positive (structural changes) (effect diminished by administering clay)”; (End Point: In vivo chromosomal aberrations, Test System: Bone marrow erythrocytes, Species: Mouse, Strain/Sex: Balb/C, Route: Intraperitoneal) “active; positive (structural changes)”. Besides, the mutagenic call (End Point: In vivo micronucleus, Test System: Bone marrow cells, Species: Mouse, Strain/Sex: Balb/C/Female, Route: Oral) was “active; positive (effect diminished by administering clay)”; the mutagenic call (End Point: In vivo micronucleus, Test System: Bone marrow erythrocytes, Species: Mouse, Strain/Sex: Balb/C, Route: Intraperitoneal) is “active; positive (p<0.05)”; the mutagenic call (End Point: UDS Monkey kidney Vero cells, Strain/Indicator: Thymidine incorporation, Metabolic Activation: None, Method: Liquid scintillation counting) was “active; positive. prevented by vitamin e at 25 um”; the mutagenic call (Test System: AMES SALMONELLA TYPHIMURIUM, Strain/Indicator: TA98, Metabolic Activation: HAMSTER, LIVER, S-9, AROCLOR 1254, Method: STANDARD PLATE) is “inactive; negative”; the mutagenic call (Test System: AMES SALMONELLA TYPHIMURIUM, Strain/Indicator: TA98, Metabolic Activation: NONE, Method: STANDARD PLATE) was “inactive; negative”; the mutagenic call (Test System: AMES SALMONELLA TYPHIMURIUM, Strain/Indicator: TA98, Metabolic Activation: RAT, LIVER, MICROSOMES, PHENOBARBITAL, Method: STANDARD PLATE) is “inactive; negative”. Moreover, the mutagenic call (Test System: AMES SALMONELLA TYPHIMURIUM, Strain/Indicator: TA98, Metabolic Activation: RAT, LIVER, S-9, AROCLOR 1254, Method: STANDARD PLATE) is “inactive; negative”; the mutagenic call (Test System: AMES SALMONELLA TYPHIMURIUM, Strain/Indicator: TA98, Metabolic Activation: RAT, LIVER, S-9, Method: STANDARD PLATE) is “inactive; negative”; the mutagenic call (Test System: AMES SALMONELLA TYPHIMURIUM, Strain/Indicator: TA100, Metabolic Activation: HAMSTER, LIVER, S-9, AROCLOR 1254, Method: STANDARD PLATE) is “inactive; negative”; the mutagenic call under setting [1] was “inactive; negative”; the mutagenic call (Test System: AMES SALMONELLA TYPHIMURIUM, Strain/Indicator: TA100, Metabolic Activation: RAT, LIVER, MICROSOMES, PHENOBARBITAL, Method: STANDARD PLATE) is “inactive; negative”; the mutagenic call under setting [2] is “inactive; negative”. Also, the mutagenic call is, setting by setting: (Test System: AMES SALMONELLA TYPHIMURIUM, Strain/Indicator: TA100, Metabolic Activation: RAT, LIVER, S-9, PHENOBARBITAL, Method: PREINCUBATION) “inactive; negative”; (Test System: AMES SALMONELLA TYPHIMURIUM, Strain/Indicator: TA100, Metabolic Activation: RAT, LIVER, S-9, Method: STANDARD PLATE) “inactive; negative; toxicity at 1000 ug/plate”; (Test System: AMES SALMONELLA TYPHIMURIUM, Strain/Indicator: TA1535, Metabolic Activation: HAMSTER, LIVER, S-9, AROCLOR 1254, Method: STANDARD PLATE) “inactive; negative”; (Test System: AMES SALMONELLA TYPHIMURIUM, Strain/Indicator: TA1535, Metabolic Activation: NONE, Method: STANDARD PLATE) “inactive; negative”; (Test System: AMES SALMONELLA TYPHIMURIUM, Strain/Indicator: TA1535, Metabolic Activation: RAT, LIVER, S-9, AROCLOR 1254, Method: STANDARD PLATE) “inactive; negative”; (Test System: AMES SALMONELLA TYPHIMURIUM, Strain/Indicator: TA1535, Metabolic Activation: RAT, LIVER, S-9, Method: STANDARD PLATE) “inactive; negative”. Moreover, the mutagenic call runs as follows: (Test System: AMES SALMONELLA TYPHIMURIUM, Strain/Indicator: TA1537, Metabolic Activation: HAMSTER, LIVER, S-9, AROCLOR 1254, Method: STANDARD PLATE) “inactive; negative”; (Test System: AMES SALMONELLA TYPHIMURIUM, Strain/Indicator: TA1537, Metabolic Activation: NONE, Method: STANDARD PLATE) “inactive; negative”; (Test System: AMES SALMONELLA TYPHIMURIUM, Strain/Indicator: TA1537, Metabolic Activation: RAT, LIVER, S-9, AROCLOR 1254, Method: STANDARD PLATE) “inactive; negative”; (Test System: AMES SALMONELLA TYPHIMURIUM, Strain/Indicator: TA1537, Metabolic Activation: RAT, LIVER, S-9, Method: STANDARD PLATE) “inactive; negative; toxicity at 500 and 1000 ug/plate”; (Test System: AMES SALMONELLA TYPHIMURIUM, Strain/Indicator: TA1538, Metabolic Activation: HAMSTER, LIVER, S-9, AROCLOR 1254, Method: STANDARD PLATE) “inactive; negative”; (Test System: AMES SALMONELLA TYPHIMURIUM, Strain/Indicator: TA1538, Metabolic Activation: RAT, LIVER, S-9, AROCLOR 1254, Method: STANDARD PLATE) “inactive; negative”. Under “Test System: AMES SALMONELLA TYPHIMURIUM, Strain/Indicator: TA1538, Metabolic Activation: RAT, LIVER, S-9, Method: STANDARD PLATE”, the mutagenic call is “inactive; negative; toxicity at 1000 ug/plate”.
Consider `CN(C)CC(=O)O`, for which the mutagenic call by setting is: under setting [3], “inactive; negative”; under setting [2], “inactive; negative”.
In the case of `COc1ccc(CCl)cc1`, the mutagenic call under setting [3] was “inactive; negative”.
As to `Oc1ccc(Cl)cc1Sc1cc(Cl)ccc1O`, the mutagenic call is “inactive; negative” (Test System: AMES SALMONELLA TYPHIMURIUM, Strain/Indicator: TA97, Metabolic Activation: HAMSTER, LIVER, S-9, AROCLOR 1254 (10 OR 30%), Method: PREINCUBATION); “inactive; negative” (Test System: AMES SALMONELLA TYPHIMURIUM, Strain/Indicator: TA97, Metabolic Activation: NONE, Method: PREINCUBATION); “inactive; negative” (Test System: AMES SALMONELLA TYPHIMURIUM, Strain/Indicator: TA97, Metabolic Activation: RAT, LIVER, S-9, AROCLOR 1254 (10 OR 30%), Method: PREINCUBATION); “inactive; negative” (Test System: AMES SALMONELLA TYPHIMURIUM, Strain/Indicator: TA98, Metabolic Activation: HAMSTER, LIVER, S-9, AROCLOR 1254 (10 OR 30%), Method: PREINCUBATION); “inactive; negative” (Test System: AMES SALMONELLA TYPHIMURIUM, Strain/Indicator: TA98, Metabolic Activation: NONE, Method: PREINCUBATION); “inactive; negative” (Test System: AMES SALMONELLA TYPHIMURIUM, Strain/Indicator: TA98, Metabolic Activation: RAT, LIVER, S-9, AROCLOR 1254 (10 OR 30%), Method: PREINCUBATION). The mutagenic call (Test System: AMES SALMONELLA TYPHIMURIUM, Strain/Indicator: TA100, Metabolic Activation: HAMSTER, LIVER, S-9, AROCLOR 1254 (10 OR 30%), Method: PREINCUBATION) was “inactive; negative”; the mutagenic call under setting [1] was “inactive; negative”; the mutagenic call (Test System: AMES SALMONELLA TYPHIMURIUM, Strain/Indicator: TA100, Metabolic Activation: RAT, LIVER, S-9, AROCLOR 1254 (10 OR 30%), Method: PREINCUBATION) is “inactive; negative”; the mutagenic call (Test System: AMES SALMONELLA TYPHIMURIUM, Strain/Indicator: TA1535, Metabolic Activation: HAMSTER, LIVER, S-9, AROCLOR 1254 (10 OR 30%), Method: PREINCUBATION) is “inactive; negative”; the mutagenic call (Test System: AMES SALMONELLA TYPHIMURIUM, Strain/Indicator: TA1535, Metabolic Activation: NONE, Method: PREINCUBATION) was “inactive; negative”; the mutagenic call (Test System: AMES SALMONELLA TYPHIMURIUM, Strain/Indicator: TA1535, Metabolic Activation: RAT, LIVER, S-9, AROCLOR 1254 (10 OR 30%), Method: PREINCUBATION) is “inactive; negative”.
